The values below come from PMC11372076, “A dual inhibitor of PIP5K1C and PIKfyve prevents SARS-CoV-2 entry into cells” (Experimental & Molecular Medicine, 2024).

In assay [1] the test system is Wuhan-Hu-1 spike-pseudotyped virus. The assay is described as follows: microbe, parasite or virus in culture. The format is cell-based, SARS-CoV-2.
The next assay deals with PIKFYVE (Homo sapiens, UniProt Q9Y2I7). Description: SelectScreen Kinase Profiling Service (PIPK profiling). The format is biochemical. The note with it: [ATP] 100 μM; 1 μM (concentration stated for UNI418 only). The text has this:
UNI418 has a core structure consisting of 4-quinazolinamine (Fig. 1a, green), which is often found in kinase inhibitors. […] The phosphoinositide (PI) system is a crucial regulatory mechanism in membrane trafficking and is tightly regulated through phosphorylation cascades by multiple phosphatidylinositol phosphate kinases (PIPKs)[30]. We hypothesized that UNI418 may inhibit PIPK(s) and performed PIPK profiling analysis. […] To test whether UNI418 interacts with PIP5K1C and PIKfyve, we performed a CETSA, which determines the characteristics of protein stabilization upon ligand binding to the target protein[31]. UNI418- or DMSO-treated cell lysates were incubated at different temperatures, and the presence of the target protein in the soluble fraction was analyzed by Western blotting (Fig. 1c).
Fig. 1 UNI418 specifically targets PIP5K1 and PIKfyve. a Chemical structure of UNI418. The 4-quinazolinamine core is highlighted in green. b Table of the kinase profiling analysis. Inhibition of several kinases was determined at a 1 μM concentration of UNI418 and analyzed by the SelectScreen Kinase Profiling Service (Thermo Fisher Scientific). c Cellular thermal shift assay. Ectopically expressed GFP-PIP5K1C and GFP-PIKfyve were heated to the indicated temperatures with/without UNI418, and the presence of protein in the soluble fraction was analyzed by Western blot analysis. TEXT PRINTED IN THE PICTURE: (b) UNI418: % Inhibition (mean): 11 ([ATP] Tested (μM): 10; Kinase Tested: PI4K2A (PI4K2 alpha)); % Inhibition (mean): 4 ([ATP] Tested (μM): 10; Kinase Tested: PI4K2B (PI4K2 beta)); % Inhibition (mean): -6 ([ATP] Tested (μM): 10; Kinase Tested: PI4KA (PI4K alpha)); % Inhibition (mean): 48 ([ATP] Tested (μM): Km app; Kinase Tested: PI4KB (PI4K beta)); % Inhibition (mean): 20 ([ATP] Tested (μM): 10; Kinase Tested: PIK3C2B (PI3K-C2 beta)); % Inhibition (mean): 22 ([ATP] Tested (μM): 10; Kinase Tested: PIK3C2G (PI3K-C2 gamma)); % Inhibition (mean): 4 ([ATP] Tested (μM): 100; Kinase Tested: PIK3C3 (hVPS34)); % Inhibition (mean): 8 ([ATP] Tested (μM): 10; Kinase Tested: PIK3CA/PIK3R3 (p110 alpha/p55 gamma)); % Inhibition (mean): 7 ([ATP] Tested (μM): 10; Kinase Tested: PIK3CB/PIK3R2 (p110 beta/p85 beta)); % Inhibition (mean): 9 ([ATP] Tested (μM): 10; Kinase Tested: PIP4K2A); % Inhibition (mean): 67 ([ATP] Tested (μM): 10; Kinase Tested: PIP5K1A); % Inhibition (mean): 93 ([ATP] Tested (μM): 10; Kinase Tested: PIP5K1B); % Inhibition (mean): 93 ([ATP] Tested (μM): 10; Kinase Tested: PIP5K1C); % Inhibition (mean): 100 ([ATP] Tested (μM): 100; Kinase Tested: PIKFYVE) | (b) Apilimod: % Inhibition (mean): 100 ([ATP] Tested (μM): 100; Kinase Tested: PIKFYVE) […]

The next assay relates to SARS-CoV-2. The assay is described as follows: microbe, parasite or virus in culture. The format is cell-based, SARS-CoV-2 (hCoV-19/Korea/KCDC06/2020). The following applies: for EC50: Severe acute respiratory syndrome coronavirus 2, Vero, 48 h, read-out: EC50 (reducing number of spike-positive cells by 50%); for selectivity index (SI), ratio of CC50 to EC50: Vero cells, Day 2.

The next assay relates to RPE1 cells. The assay is described as follows: Western blot of autophagy-monitoring proteins SQSTM1/p62 and LC3-II. The format is cell-based. From the text:
Fig. 2 UNI418 inhibits autophagy. a Western blot analysis of p62, LC3B-I, LC3B-II and GAPDH in the presence of UNC3230, apilimod and UNI418. b Immunofluorescence staining with LC3B (green) and p62 (red) antibodies upon treatment with UNC3230, apilimod and UNI418, and images within the white rectangular boxes are magnified on the right side. Scale bar, 20 µm. c The area of fluorescence intensity from immunofluorescence images (b) was quantified after UNC3230, apilimod and UNI418 treatments. d, e Quantification of autophagic flux under normal conditions and under HBSS-induced starvation conditions with or without UNI418 treatment. RPE1 cells were treated with UNI418 (0.5 µM or 1 µM) for 2 h in the presence or absence of a lysosomal inhibitor (bafilomycin A1, BFA). Representative Western blot images (d) and the graph showing the average of 4 independent experiments (e). The error bars indicate the S.D. Statistical analysis was performed using two-way ANOVA; *p < 0.05, ***p < 0.001.
Supplementary Materials and Methods
The whole cell extracts were prepared by lysis of harvested cells with M -PER Mammalian protein extraction reagent (Thermo Fisher Scientific). The protein concentrations were determined by Bradford protein assay (Bio- Rad). The 10 to 20 μ g of prepared proteins were separated by the SDS-PAGE and transferred to PVDF membrane, which were then blocked in 5% skim milk for 30 minutes at room temperature. […] The images were obtained and quantified by Fusion solo ChemiDoc system (Vilber).
Autophagic flux assay was analyzed essentially as previously described1,2.
Briefly, RPE1 cells were treated with UNI418 (0, 0.5, or 1 µM) for 2 h with/without bafilomycin A1 to inhibit lysosomal degradation under normal growth media or HBSS. […] The LC3- II bands were quantified using Fusion Solo ChemiDoc system (Vilber) and normalized to GAPDH bands.
Autophagy flux was calculated by subsidizing the lysosomal inhibitor-treated cells to non- treatment cells in both normal growth media and HBSS-induced starvation with 0, 0.5, or 1 µM UNI418. […]

Assay [2] has as its system ACE2-mediated endocytosis in HEK293T cells. The format is cell-based. The following applies: 0.5 μM compound, 20 μg/mL spike-RBD, 2 h.

PIKFYVE, sequence (Q9Y2I7 whole entry): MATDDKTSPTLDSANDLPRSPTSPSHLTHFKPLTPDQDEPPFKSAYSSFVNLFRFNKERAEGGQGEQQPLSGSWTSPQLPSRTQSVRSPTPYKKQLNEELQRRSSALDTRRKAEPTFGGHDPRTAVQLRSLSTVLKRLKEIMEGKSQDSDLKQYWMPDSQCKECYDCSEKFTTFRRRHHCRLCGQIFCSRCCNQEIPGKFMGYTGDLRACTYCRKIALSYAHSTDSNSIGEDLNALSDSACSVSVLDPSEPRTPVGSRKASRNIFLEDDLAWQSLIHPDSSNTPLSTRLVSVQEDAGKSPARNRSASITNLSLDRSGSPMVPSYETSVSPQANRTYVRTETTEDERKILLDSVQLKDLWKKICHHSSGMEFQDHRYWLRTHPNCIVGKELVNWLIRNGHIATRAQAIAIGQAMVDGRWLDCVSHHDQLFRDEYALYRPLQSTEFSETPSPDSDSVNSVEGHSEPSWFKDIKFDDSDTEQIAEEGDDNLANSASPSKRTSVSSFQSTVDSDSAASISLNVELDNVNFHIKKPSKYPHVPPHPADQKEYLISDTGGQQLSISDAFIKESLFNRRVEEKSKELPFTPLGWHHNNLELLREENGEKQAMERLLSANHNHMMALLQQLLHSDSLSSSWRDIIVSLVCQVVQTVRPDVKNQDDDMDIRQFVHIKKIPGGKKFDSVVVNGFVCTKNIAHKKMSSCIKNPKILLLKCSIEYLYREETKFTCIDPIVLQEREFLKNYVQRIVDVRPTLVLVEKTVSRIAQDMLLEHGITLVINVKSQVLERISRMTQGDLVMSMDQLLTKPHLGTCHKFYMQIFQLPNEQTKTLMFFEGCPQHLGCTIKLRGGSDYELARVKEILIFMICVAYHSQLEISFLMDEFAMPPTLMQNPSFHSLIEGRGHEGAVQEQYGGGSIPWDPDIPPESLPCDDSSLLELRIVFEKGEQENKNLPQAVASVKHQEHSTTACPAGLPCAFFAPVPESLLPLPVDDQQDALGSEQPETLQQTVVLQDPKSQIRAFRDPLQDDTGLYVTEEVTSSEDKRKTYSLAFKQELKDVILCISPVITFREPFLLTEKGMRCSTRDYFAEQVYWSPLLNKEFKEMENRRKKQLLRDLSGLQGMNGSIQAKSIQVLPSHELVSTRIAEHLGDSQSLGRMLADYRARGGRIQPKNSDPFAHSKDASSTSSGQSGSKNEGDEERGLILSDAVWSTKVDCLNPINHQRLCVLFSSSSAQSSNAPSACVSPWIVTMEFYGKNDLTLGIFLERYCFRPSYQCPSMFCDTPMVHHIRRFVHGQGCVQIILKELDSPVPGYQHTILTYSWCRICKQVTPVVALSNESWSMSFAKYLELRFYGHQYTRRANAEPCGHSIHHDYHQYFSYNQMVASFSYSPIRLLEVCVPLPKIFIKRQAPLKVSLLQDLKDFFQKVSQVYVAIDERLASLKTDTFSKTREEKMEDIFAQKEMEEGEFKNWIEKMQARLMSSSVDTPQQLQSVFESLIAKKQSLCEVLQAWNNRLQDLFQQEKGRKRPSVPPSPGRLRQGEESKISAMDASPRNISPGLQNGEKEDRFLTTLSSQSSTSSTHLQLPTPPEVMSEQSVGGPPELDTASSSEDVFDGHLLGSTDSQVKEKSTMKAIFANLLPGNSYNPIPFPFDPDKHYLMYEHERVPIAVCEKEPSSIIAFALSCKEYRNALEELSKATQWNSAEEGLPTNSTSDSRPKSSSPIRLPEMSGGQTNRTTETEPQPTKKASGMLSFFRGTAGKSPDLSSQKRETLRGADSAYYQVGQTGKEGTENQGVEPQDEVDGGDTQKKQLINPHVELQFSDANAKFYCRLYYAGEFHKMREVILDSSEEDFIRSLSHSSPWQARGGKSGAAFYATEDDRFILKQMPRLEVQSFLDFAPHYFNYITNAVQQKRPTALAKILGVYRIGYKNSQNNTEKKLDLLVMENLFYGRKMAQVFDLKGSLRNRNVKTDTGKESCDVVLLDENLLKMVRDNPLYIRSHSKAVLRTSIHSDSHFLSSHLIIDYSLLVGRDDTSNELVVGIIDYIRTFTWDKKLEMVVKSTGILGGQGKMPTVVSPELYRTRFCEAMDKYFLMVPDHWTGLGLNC

Consider `c1ccc(-c2cc(Nc3nc(-c4ccncc4)nc4ccccc34)n[nH]2)cc1` [UNI418, N -(5-phenyl-1 H -pyrazol-3-yl)-2-(4-pyridinyl)-4-quinazolinamine], for which the pseudotyped virus entry entry in assay [1] is recorded as “markedly inhibited”. Moreover, the inhibition (commonly how much of the control response was suppressed) at 1 µM against PIKFYVE stood at 100%. Further, in the assay with SARS-CoV-2, the EC50 (as a rule, the concentration that produces a half-maximal response) came to 1400 nM and the “selectivity index (SI), ratio of CC50 to EC50” value is recorded as 45.6. Besides, the “accumulation of SQSTM1/p62 and LC3-II” value in the assay on RPE1 cells is “strongly induced”. For the same molecule, in assay [2], the “ACE2-mediated endocytosis triggered by spike-RBD” value is “successfully inhibited”.

`Cc1cccc(/C=N/Nc2cc(N3CCOCC3)nc(OCCc3ccccn3)n2)c1` [apilimod]: in assay [1] (Severe acute respiratory syndrome coronavirus 2, 293T/ACE2, read-out: concentration that inhibited spike-mediated viral entry by 50% compared to maximal inhibition), the IC50 worked out at 5 nM. Moreover, the inhibition at 1 µM at PIKFYVE was found to be 100%. In addition, in the assay on SARS-CoV-2, the EC50 amounted to 300 nM and the “selectivity index (SI), ratio of CC50 to EC50” value is 272.6. Also, the “accumulation of SQSTM1/p62 and LC3-II” value with RPE1 cells is “strongly induced”. Besides, the “ACE2-mediated endocytosis triggered by spike-RBD” value in assay [2] is on record as “did not obviously inhibit”.
